Laboratory results from patent US12344623B2, “Thiazolopyridine derivatives as adenosine receptor antagonists” (Merck Patent GmbH, priority 2019, dated 2025).

Legend:
Type in all cases: cell-based
human A2B receptor = molecular target: T1, human A2B receptor (Homo sapiens, UniProt P29275); test: Functional A2B receptor activity, recombinant HEK293 cells, cAMP (HTRF), agonist NECA; settings: read-out: Functional A2B receptor activity, HEK293, cAMP, IC50
T1 construct: expressed in transfected cells; host or cells: HEK293
T1 sequence (P29275 1-332): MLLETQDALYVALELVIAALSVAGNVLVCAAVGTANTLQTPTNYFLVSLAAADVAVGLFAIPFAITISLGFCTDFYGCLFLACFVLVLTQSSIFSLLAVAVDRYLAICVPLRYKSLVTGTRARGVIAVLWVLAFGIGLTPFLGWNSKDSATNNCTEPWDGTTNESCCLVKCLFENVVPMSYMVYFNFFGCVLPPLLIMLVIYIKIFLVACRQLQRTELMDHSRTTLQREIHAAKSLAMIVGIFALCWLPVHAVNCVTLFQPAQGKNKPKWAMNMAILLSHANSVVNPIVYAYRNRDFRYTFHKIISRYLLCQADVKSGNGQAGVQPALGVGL
Description: (§1) The functional activities of human A2A, A2B, A1 and A3 receptors were determined by quantification of cAMP, being the second messenger for adenosine receptors.
(§2) Cells were seeded into 384-well plates, forskolin, test compounds and agonists (CPA for A1- and IB-MECA for A3-receptor) were added. After 30 min incubation, HTRF reagents (cAMP dynamic 2, Cis Bio) were added and the cellular cAMP levels were determined using the ENVISION (Perkin Elmer) plate reader. Obtained raw data were normalized against the inhibitor control and the neural control (DMSO) and the normalized data were fitted using GeneData software.

human A1 receptor = molecular target: T2, human A1 receptor (Homo sapiens, UniProt P30542); test: Functional A1 receptor activity, recombinant CHO cells, cAMP (HTRF), forskolin, agonist CPA; settings: recombinant CHO cells, forskolin, agonist CPA; read-out: Functional A1 receptor activity, CHO, cAMP, IC50
T2 construct: expressed in transfected cells; host or cells: CHO
T2 sequence (P30542 1-326): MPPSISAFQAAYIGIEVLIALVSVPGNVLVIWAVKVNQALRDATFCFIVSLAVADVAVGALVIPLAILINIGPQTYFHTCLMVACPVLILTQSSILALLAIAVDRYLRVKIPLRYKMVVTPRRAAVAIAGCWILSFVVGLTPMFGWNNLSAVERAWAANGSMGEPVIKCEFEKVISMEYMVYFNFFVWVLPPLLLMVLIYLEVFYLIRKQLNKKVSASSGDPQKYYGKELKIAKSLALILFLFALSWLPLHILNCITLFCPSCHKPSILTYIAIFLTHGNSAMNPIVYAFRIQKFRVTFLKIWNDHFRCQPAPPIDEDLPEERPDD
Description: as §1
(§3) For human A1 and A3 receptors, recombinant CHO cells, expressing either A1 or A3-receptor, were used. As both receptors couple to Gi proteins, the assay protocol was adapted:
as §2

human A3 receptor = molecular target: T3, human A3 receptor (Homo sapiens, UniProt P0DMS8); test: Functional A3 receptor activity, recombinant CHO cells, cAMP (HTRF), forskolin, agonist IB-MECA; settings: recombinant CHO cells, forskolin, agonist IB-MECA; read-out: Functional A3 receptor activity, CHO, cAMP, IC50
T3 construct: expressed in transfected cells; host or cells: CHO
T3 sequence (P0DMS8 1-318): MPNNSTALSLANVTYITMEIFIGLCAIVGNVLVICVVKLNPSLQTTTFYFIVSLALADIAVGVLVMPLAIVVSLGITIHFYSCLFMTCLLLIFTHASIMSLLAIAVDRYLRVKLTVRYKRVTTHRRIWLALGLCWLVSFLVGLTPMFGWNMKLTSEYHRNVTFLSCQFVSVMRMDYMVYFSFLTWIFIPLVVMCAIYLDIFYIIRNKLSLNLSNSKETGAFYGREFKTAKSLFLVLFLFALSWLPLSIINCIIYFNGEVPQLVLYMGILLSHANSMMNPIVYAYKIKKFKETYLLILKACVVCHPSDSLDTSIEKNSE
Description: as §1, §3, §2

human A2A receptor = human A2A receptor (Homo sapiens, UniProt P29274); test: Functional A2A receptor activity, recombinant HEK293 cells, cAMP (HTRF), agonist NECA; design: expressed in transfected cells; host or cells: HEK293; settings: read-out: Functional A2A receptor activity, HEK293, cAMP, IC50
human A2A receptor, sequence (P29274 whole entry): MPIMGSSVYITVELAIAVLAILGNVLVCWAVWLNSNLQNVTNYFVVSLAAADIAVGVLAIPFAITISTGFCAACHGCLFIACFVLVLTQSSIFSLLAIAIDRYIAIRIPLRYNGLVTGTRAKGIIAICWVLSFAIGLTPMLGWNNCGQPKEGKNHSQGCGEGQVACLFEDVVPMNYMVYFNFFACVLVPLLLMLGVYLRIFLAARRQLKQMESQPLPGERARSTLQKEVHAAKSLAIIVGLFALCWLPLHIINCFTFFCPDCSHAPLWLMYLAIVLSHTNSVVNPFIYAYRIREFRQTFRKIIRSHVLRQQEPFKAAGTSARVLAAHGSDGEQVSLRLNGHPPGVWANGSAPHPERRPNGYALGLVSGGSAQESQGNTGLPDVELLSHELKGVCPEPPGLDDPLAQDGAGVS
Description: as §1, §2

SMILES | IC50 (human A2B receptor) [µM] | IC50 (human A1 receptor) [µM] | IC50 (human A3 receptor) [µM] | IC50 (human A2A receptor) [µM]
COc1ncc(-c2csc(C)n2)c2sc(NC(=O)N3CCC4(CCOCC4)C3)nc12 [Compound 67, 8-Oxa-2-aza-spiro[4.5]decane-2-carboxylic acid [4-methoxy-7-(2-methyl-thiazol-4-yl)-thiazolo[4,5-c]pyridin-2-yl]-amide] | < 0.1 | < 1 | > 1 | < 0.01
COc1ncc(C2=CCC(OC)CC2)c2sc(NC(=O)N3CC[C@]4(CCCOC4)C3)nc12 (stereo partly drawn) [Compound 70, (5R)-N-[4-methoxy-7-(4-methoxycyclohex-1-en-1-yl)-[1,3]thiazolo[4,5-c]pyridin-2-yl]-7-oxa-2-azaspiro[4.5]decane-2-carboxamide] | < 1 | > 1 | > 1 | < 0.01
COc1ncc(C2COCCO2)c2sc(NC(=O)N3CCC4(CCOCC4)C3)nc12 (stereo not shown) [Compound 73, 8-Oxa-2-aza-spiro[4.5]decane-2-carboxylic acid (7-[1,4]dioxan-2-yl-4-methoxy-thiazolo[4,5-c]pyridin-2-yl)-amide] | < 0.1 | > 1 | > 1 | < 0.01
COc1ncc(-c2cnn(Cc3ccncc3)c2)c2sc(NC(=O)N3CCC4(CCOCC4)C3)nc12 [Compound 75, 8-Oxa-2-aza-spiro[4.5]decane-2-carboxylic acid [4-methoxy-7-(1-pyridin-4-ylmethyl-1H-pyrazol-4-yl)-thiazolo[4,5-c]pyridin-2-yl]-amide] | < 0.1 | > 1 | > 1 | < 0.01
COc1ncc(-c2cnn(Cc3ccccc3)c2)c2sc(NC(=O)N3CCC4(CCOCC4)C3)nc12 [Compound 76, 8-Oxa-2-aza-spiro[4.5]decane-2-carboxylic acid [7-(1-benzyl-1H-pyrazol-4-yl)-4-methoxy-thiazolo[4,5-c]pyridin-2-yl]-amide] | < 0.01 | < 0.1 | > 1 | < 0.01
COc1ncc(C2=CCC(OC)CC2)c2sc(NC(=O)N3CC[C@@]4(CCCOC4)C3)nc12 (stereo partly drawn) [Compound 77, (5S)-N-[4-methoxy-7-(4-methoxycyclohex-1-en-1-yl)-[1,3]thiazolo[4,5-c]pyridin-2-yl]-7-oxa-2-azaspiro[4.5]decane-2-carboxamide] | < 1 | > 1 | > 1 | < 0.01
COc1ncc(-c2ccc(=O)[nH]c2)c2sc(NC(=O)N3CCC4(CCOCC4)C3)nc12 [Compound 78, 8-Oxa-2-aza-spiro[4.5]decane-2-carboxylic acid [4-methoxy-7-(6-oxo-1,6-dihydro-pyridin-3-yl)-thiazolo[4,5-c]pyridin-2-yl]-amide] | < 1 | > 1 | > 1 | < 0.01
COc1ncc(-c2cnn(C(F)F)c2)c2sc(NC(=O)N3CCC4(CCOCC4)C3)nc12 [Compound 79, 8-Oxa-2-aza-spiro[4.5]decane-2-carboxylic acid [7-(1-difluoromethyl-1H-pyrazol-4-yl)-4-methoxy-thiazolo[4,5-c]pyridin-2-yl]-amide] | < 0.1 | < 1 | > 1 | < 0.01
O=C(Nc1nc2c(OC(F)F)ncc(-c3ccccc3)c2s1)N1CCC2(CCOCC2)C1 [Compound 80, 8-Oxa-2-aza-spiro[4.5]decane-2-carboxylic acid (4-difluoromethoxy-7-phenyl-thiazolo[4,5-c]pyridin-2-yl)-amide] | < 0.1 | > 1 | > 1 | < 0.01
COCCNc1ncc(C(=O)Nc2nc3c(OC)ncc(C4=CCOCC4)c3s2)s1 [Compound 81, N-[7-(3,6-dihydro-2H-pyran-4-yl)-4-methoxy-[1,3]thiazolo[4,5-c]pyridin-2-yl]-2-[(2-methoxyethyl)amino]-1,3-thiazole-5-carboxamide] | < 0.01 | < 1 | > 1 | < 0.01
COc1ncc(C2=CCOCC2)c2sc(NC(=O)c3ccc(Cn4ccnc4)cc3)nc12 [Compound 82, N-[7-(3,6-dihydro-2H-pyran-4-yl)-4-methoxy-[1,3]thiazolo[4,5-c]pyridin-2-yl]-4-[(1H-imidazol-1-yl)methyl]benzamide] | < 0.01 | < 0.1 | > 1 | < 0.01
COc1ncc(C2=CCOCC2)c2sc(NC(=O)c3ccc([C@@H](C)NC(C)=O)cc3)nc12 [Compound 83, N-[7-(3,6-dihydro-2H-pyran-4-yl)-4-methoxy-[1,3]thiazolo[4,5-c]pyridin-2-yl]-4-[(1R)-1-acetamidoethyl]benzamide] | < 0.01 | < 1 | > 1 | < 0.01
COc1ncc(-c2cnn(CC3CCCCO3)c2)c2sc(NC(=O)N3CCC4(CCOCC4)C3)nc12 (stereo not shown) [Compound 84, 8-Oxa-2-aza-spiro[4.5]decane-2-carboxylic acid {4-methoxy-7-[1-(tetrahydro-pyran-2-ylmethyl)-1H-pyrazol-4-yl]-thiazolo[4,5-c]pyridin-2-yl}-amide] | < 0.1 | < 0.1 | > 1 | < 0.01
COc1ncc(C2=CCOCC2)c2sc(NC(=O)N3CCC(N4C(=O)C=CC4=O)CC3)nc12 [Compound 88, N-[7-(3,6-dihydro-2H-pyran-4-yl)-4-methoxy-[1,3]thiazolo[4,5-c]pyridin-2-yl]-4-(2,5-dioxo-2,5-dihydro-1H-pyrrol-1-yl)piperidine-1-carboxamide] | < 0.1 | > 1 | > 1 | < 0.01
COc1ncc(C2=CCOCC2)c2sc(NC(=O)Nc3ccc(NC(=O)CN(C)C)cc3)nc12 [Compound 90, N-[4-({[7-(3,6-dihydro-2H-pyran-4-yl)-4-methoxy-[1,3]thiazolo[4,5-c]pyridin-2-yl]carbamoyl}amino)phenyl]-2-(dimethylamino)acetamide] | < 0.01 | > 1 | > 1 | < 0.01
COc1ncc(C2=CCOCC2)c2sc(NC(=O)Nc3ccc(NC(C)=O)c(C)c3)nc12 [Compound 92, N-[4-({[7-(3,6-dihydro-2H-pyran-4-yl)-4-methoxy-[1,3]thiazolo[4,5-c]pyridin-2-yl]carbamoyl}amino)-2-methylphenyl]acetamide] | < 0.01 | < 0.1 | < 1 | < 0.01
COc1ncc(C2=CCOCC2)c2sc(NC(=O)Nc3ccc(N4N=C(C)CC4=O)cc3)nc12 [Compound 94, 3-[7-(3,6-dihydro-2H-pyran-4-yl)-4-methoxy-[1,3]thiazolo[4,5-c]pyridin-2-yl]-1-[4-(3-methyl-5-oxo-4,5-dihydro-1H-pyrazol-1-yl)phenyl]urea] | < 0.1 | > 1 | > 1 | < 0.01
COc1ncc(C2=CCOCC2)c2sc(NC(=O)Nc3ccc(N4CCOC4=O)cc3)nc12 [Compound 95, 3-[7-(3,6-dihydro-2H-pyran-4-yl)-4-methoxy-[1,3]thiazolo[4,5-c]pyridin-2-yl]-1-[4-(2-oxo-1,3-oxazolidin-3-yl)phenyl]urea] | < 0.01 | < 1 | < 1 | < 0.01
COc1nc(F)c(-c2ccccc2)c2sc(NC(=O)C34CC(C(=O)N(C)CCO)(C3)C4)nc12 [Compound 101, Bicyclo[1.1.1]pentane-1,3-dicarboxylic acid (6-fluoro-4-methoxy-7-phenyl-thiazolo[4,5-c]pyridin-2-yl)-amide (2-hydroxy-ethyl)-methyl-amide] | < 0.1 | > 1 | > 1 | < 0.01
